Structures can show the parent of a compound that is named as a salt. Where two headings read alike, the source gives them in different places.
Columns and labels:
[1] = target: T1, GABA A receptor a1b3g2 (hα1) (Homo sapiens, UniProt P14867+P18507); test: [3H]flumazenil competition binding, GABA A a1b3g2 receptors in HEK293 cells
T1 construct: expressed in transfected cells; host or cells: HEK293 (transient transfection), membranes
Description: (§1) Membrane Preparation and Binding Assay
(§2) The affinity of compounds at GABA A receptor subtypes was measured by competition for [3H]flumazenil (85 Ci/mmol; Roche) binding to HEK293 cells expressing rat (stably transfected) or human (transiently transfected) receptors of composition a1b3g2, a2b3g2, a3b3g2 and a5b3g2.
(§3) Cell pellets were suspended in Krebs-tris buffer (4.8 mM KCl, 1.2 mM CaCl2, 1.2 mM MgCl2, 120 mM NaCl, 15 mM Tris; pH 7.5; binding assay buffer), homogenized by polytron for ca. 20 sec on ice and centrifuged for 60 min at 4° C. (50000 g; Sorvall, rotor: SM24=20000 rpm). The cell pellets were resuspended in Krebs-tris buffer and homogenized by polytron for ca. 15 sec on ice. Protein was measured (Bradford method, Bio-Rad) and aliquots of 1 mL were prepared and stored at −80° C.
(§4) Assays were incubated to equilibrium for 1 hour at 4° C. and harvested onto GF/C uni-filters (Packard) by filtration using a Packard harvester and washing with ice-cold wash buffer (50 mM Tris; pH 7.5). After drying, filter-retained radioactivity was detected by liquid scintillation counting. Ki values were calculated using Excel-Fit (Microsoft) and are the means of two determinations.
(§5) The major important difference is change from SF9 to HEK293 cells (which are human transiently transfected).

[2] = target: T2, GABA A receptor a5b3g2 (hα5) (Homo sapiens, UniProt P18507+P31644); test: [3H]flumazenil competition binding, GABA A a5b3g2 receptors in HEK293 cells
T2 construct: expressed in transfected cells; host or cells: HEK293 (transient transfection), membranes
Description: as §1, §2, §3, §4, §5

[3] = target: T3, GABA A receptor a2b3g2 (hα2) (Homo sapiens, UniProt P18507+P47869); test: [3H]flumazenil competition binding, GABA A a2b3g2 receptors in HEK293 cells
T3 construct: expressed in transfected cells; host or cells: HEK293 (transient transfection), membranes
Description: as §1, §2, §3
(§6) Radioligand binding assays were carried out in a volume of […] (96-well plates) which contained […] of cell memebranes, [3H]flumazenil at a concentration of 1 nM for a1, a2, a3 subunits and 0.5 nM for a5 subunits and the test compound in the range of 10-10-3×10^-6 M. Nonspecific binding was defined by 10^-5 M diazepam and typically represented less than 5% of the total binding. Assays were incubated to equilibrium for 1 hour at 4° C. and harvested onto GF/C uni-filters (Packard) by filtration using a Packard harvester and washing with ice-cold wash buffer (50 mM Tris; pH 7.5). After drying, filter-retained radioactivity was detected by liquid scintillation counting. Ki values were calculated using Excel-Fit (Microsoft) and are the means of two determinations.
as §5

[4] = target: T4, GABA A receptor a3b3g2 (hα3) (Homo sapiens, UniProt P18507+P34903); test: [3H]flumazenil competition binding, GABA A a3b3g2 receptors in HEK293 cells
T4 construct: expressed in transfected cells; host or cells: HEK293 (transient transfection), membranes
Description: as §1, §2, §3, §6, §5

[5] = [3H]flumazenil 1 nM, HEK293 membranes, human transiently transfected, mean of two determinations, read-out: Ki[nM] hα1
[6] = [3H]flumazenil 0.5 nM, HEK293 membranes, human transiently transfected, mean of two determinations, read-out: Ki[nM] hα5
[7] = [3H]flumazenil 1 nM, HEK293 membranes, human transiently transfected, mean of two determinations, read-out: Ki[nM] hα2
[8] = [3H]flumazenil 1 nM, HEK293 membranes, human transiently transfected, mean of two determinations, read-out: Ki[nM] hα3

Compound: 3-Fluoro-10-(3-methoxy-phenylethynyl)-9H-imidazo[1,5-a][1,2,4]triazolo[1,5-d][1,4]benzodiazepine [Example 34]
- Ki [1, 5]: 14.1 nM
- Ki [2, 6]: 1.1 nM

Compound: Cc1ncn2c1Cn1ncnc1-c1ccccc1-2 [Example 1, 10-Methyl-9H-imidazo[1,5-a][1,2,4]triazolo[1,5-d][1,4]benzodiazepine]
- Ki [1]: 41.6 nM
- Ki [3]: 15.5 nM
- Ki [4]: 10.1 nM
- Ki [2, 6]: 2.6 nM

Compound: Cc1ncn2c1Cn1ncnc1-c1cc(F)ccc1-2 [Example 2, 3-Fluoro-10-methyl-9H-imidazo[1,5-a][1,2,4]triazolo[1,5-d][1,4]benzodiazepine]
- Ki [1]: 18.2 nM
- Ki [3]: 9.1 nM
- Ki [4]: 10.8 nM
- Ki [2, 6]: 3 nM

Compound: Cc1ncn2c1Cn1ncnc1-c1cc(Cl)ccc1-2 [Example 3, 3-Chloro-10-methyl-9H-imidazo[1,5-a][1,2,4]triazolo[1,5-d][1,4]benzodiazepine]
- Ki [1]: 18.5 nM
- Ki [3, 7]: 219 nM
- Ki [4, 8]: 265 nM
- Ki [2]: 3 nM

Compound: CCc1ncn2c1Cn1ncnc1-c1cc(F)ccc1-2 [Example 9, 10-Ethyl-3-fluoro-9H-imidazo[1,5-a][1,2,4]triazolo[1,5-d][1,4]benzodiazepine]
- Ki [1]: 7.9 nM
- Ki [3]: 1.9 nM
- Ki [4]: 1.3 nM
- Ki [2, 6]: 0.5 nM

Compound: CCc1ncn2c1Cn1ncnc1-c1cc(Cl)ccc1-2 [Example 10, 3-Chloro-10-ethyl-9H-imidazo[1,5-a][1,2,4]triazolo[1,5-d][1,4]benzodiazepine]
- Ki [1]: 15.4 nM
- Ki [3]: 9.6 nM
- Ki [4]: 7 nM
- Ki [2, 6]: 2.1 nM

Compound: CCc1ncn2c1Cn1ncnc1-c1cc(OC)ccc1-2 [Example 11, 10-Ethyl-3-methoxy-9H-imidazo[1,5-a][1,2,4]triazolo[1,5-d][1,4]benzodiazepine]
- Ki [1]: 26.7 nM
- Ki [3]: 84.6 nM
- Ki [4]: 39.1 nM
- Ki [2, 6]: 3.8 nM

Compound: CCCc1ncn2c1Cn1ncnc1-c1cc(Cl)ccc1-2 [Example 12, 3-Chloro-10-propyl-9H-imidazo[1,5-a][1,2,4]triazolo[1,5-d][1,4]benzodiazepine]
- Ki [1]: 4.2 nM
- Ki [3]: 7.9 nM
- Ki [4]: 5.6 nM
- Ki [2, 6]: 1.6 nM

Compound: Clc1ccc2c(c1)-c1ncnn1Cc1c(CC3CC3)ncn1-2 [Example 14, 3-Chloro-10-cyclopropylmethyl-9H-imidazo[1,5-a][1,2,4]triazolo[1,5-d][1,4]benzodiazepine]
- Ki [1]: 4.9 nM
- Ki [3]: 10.2 nM
- Ki [4]: 6.1 nM
- Ki [2, 6]: 1.7 nM

Compound: C=Cc1ncn2c1Cn1ncnc1-c1ccccc1-2 [Example 18, 10-Vinyl-9H-imidazo[1,5-a][1,2,4]triazolo[1,5-d][1,4]benzodiazepine]
- Ki [1]: 12.8 nM
- Ki [3]: 5.7 nM
- Ki [4]: 3.7 nM
- Ki [2, 6]: 0.8 nM

Compound: C=Cc1ncn2c1Cn1ncnc1-c1cc(F)ccc1-2 [Example 19, 3-Fluoro-10-vinyl-9H-imidazo[1,5-a][1,2,4]triazolo[1,5-d][1,4]benzodiazepine]
- Ki [1]: 7.8 nM
- Ki [3]: 5.9 nM
- Ki [4]: 2.3 nM
- Ki [2, 6]: 11 nM

Compound: C=Cc1ncn2c1Cn1ncnc1-c1cc(Cl)ccc1-2 [Example 20, 3-Chloro-10-vinyl-9H-imidazo[1,5-a][1,2,4]triazolo[1,5-d][1,4]benzodiazepine]
- Ki [1]: 35.8 nM
- Ki [3]: 33.6 nM
- Ki [4]: 20.8 nM
- Ki [2, 6]: 2.2 nM

Compound: C/C=C/c1ncn2c1Cn1ncnc1-c1cc(Cl)ccc1-2 [Example 21, 3-Chloro-10-(E)-propenyl-9H-imidazo[1,5-a][1,2,4]triazolo[1,5-d][1,4]benzodiazepine]
- Ki [1]: 5.2 nM
- Ki [3]: 6.9 nM
- Ki [4]: 4.8 nM
- Ki [2, 6]: 0.4 nM

Compound: Clc1ccc2c(c1)-c1ncnn1Cc1c(/C=C/C3CC3)ncn1-2 [Example 23, 3-Chloro-10-((E)-2-cyclopropyl-vinyl)-9H-imidazo[1,5-a][1,2,4]triazolo[1,5-d][1,4]benzodiazepine]
- Ki [1]: 26.9 nM
- Ki [3]: 41 nM
- Ki [4]: 32.5 nM
- Ki [2, 6]: 3.7 nM

Compound: C#Cc1ncn2c1Cn1ncnc1-c1cc(Cl)ccc1-2 [Example 26, 3-Chloro-10-ethynyl-9H-imidazo[1,5-a][1,2,4]triazolo[1,5-d][1,4]benzodiazepine]
- Ki [1]: 4.6 nM
- Ki [3]: 6.4 nM
- Ki [4]: 3.5 nM
- Ki [2, 6]: 0.5 nM

Compound: C#Cc1ncn2c1Cn1ncnc1-c1cc(Br)ccc1-2 [Example 27, 3-Bromo-10-ethynyl-9H-imidazo[1,5-a][1,2,4]triazolo[1,5-d][1,4]benzodiazepine]
- Ki [1]: 20.3 nM
- Ki [3]: 19 nM
- Ki [4]: 11.9 nM
- Ki [2, 6]: 0.9 nM

Compound: CC(C)(O)C#Cc1ncn2c1Cn1ncnc1-c1cc(Cl)ccc1-2 [Example 28, 3-Chloro-10-(3-hydroxy-3-methyl-but-1-ynyl)-9H-imidazo[1,5-a][1,2,4]triazolo[1,5-d][1,4]benzodiazepine]
- Ki [1]: 91 nM
- Ki [2, 6]: 3.6 nM

Compound: Clc1ccc2c(c1)-c1ncnn1Cc1c(C#Cc3ccccc3)ncn1-2 [Example 30, 3-Chloro-10-phenylethynyl-9H-imidazo[1,5-a][1,2,4]triazolo[1,5-d][1,4]benzodiazepine]
- Ki [1]: 13.3 nM
- Ki [2, 6]: 1.2 nM

Compound: Fc1cccc(C#Cc2ncn3c2Cn2ncnc2-c2cc(F)ccc2-3)c1 [Example 31, 3-Fluoro-10-(3-fluoro-phenylethynyl)-9H-imidazo[1,5-a][1,2,4]triazolo[1,5-d][1,4]benzodiazepine]
- Ki [1]: 5.5 nM
- Ki [3]: 4.5 nM
- Ki [4]: 3.6 nM
- Ki [2, 6]: 1.6 nM

Compound: Fc1ccc2c(c1)-c1ncnn1Cc1c(C#Cc3cccc(C(F)(F)F)c3)ncn1-2 [Example 33, 3-Fluoro-10-(3-trifluoromethyl-phenylethynyl)-9H-imidazo[1,5-a][1,2,4]triazolo[1,5-d][1,4]benzodiazepine]
- Ki [1]: 3.4 nM
- Ki [2, 6]: 1.2 nM

Compound: CC(C)c1cccc(C#Cc2ncn3c2Cn2ncnc2-c2cc(F)ccc2-3)c1 [Example 36, 3-Fluoro-10-(3-isopropyl-phenylethynyl)-9H-imidazo[1,5-a][1,2,4]triazolo[1,5-d][1,4]benzodiazepine]
- Ki [1]: 4 nM
- Ki [2, 6]: 1.5 nM

Compound: FC(F)=Cc1ncn2c1Cn1ncnc1-c1ccccc1-2 [Example 40, 10-(2,2-Difluoro-vinyl)-9H-imidazo[1,5-a][1,2,4]triazolo[1,5-d][1,4]benzodiazepine]
- Ki [1]: 8.5 nM
- Ki [3]: 3.7 nM
- Ki [4]: 2.3 nM
- Ki [2, 6]: 0.5 nM

Compound: FC(F)Cc1ncn2c1Cn1ncnc1-c1ccccc1-2 [Example 41, 10-(2,2-Difluoro-ethyl)-9H-imidazo[1,5-a][1,2,4]triazolo[1,5-d][1,4]benzodiazepine]
- Ki [1]: 13.5 nM
- Ki [3]: 14.4 nM
- Ki [4]: 7 nM
- Ki [2, 6]: 1 nM

Compound: CCCc1ncn2c1Cn1ncnc1-c1cc(Br)ccc1-2 [Example 42, 3-Bromo-10-propyl-9H-imidazo[1,5-a][1,2,4]triazolo[1,5-d][1,4]benzodiazepine]
- Ki [1]: 10.6 nM
- Ki [2, 6]: 1.4 nM

Compound: Cc1ncn2c1Cn1ncnc1-c1cc(I)ccc1-2 [Example 53, 3-Iodo-10-methyl-9H-imidazo[1,5-a][1,2,4]triazolo[1,5-d][1,4]benzodiazepine hydrochloride (1:1)]
- Ki [1, 5]: 184 nM
- Ki [3, 7]: 261 nM
- Ki [4, 8]: 126 nM
- Ki [2]: 4.3 nM

Compound: Cc1ncn2c1Cn1ncnc1-c1c(F)cccc1-2 [Example 57, 4-Fluoro-10-methyl-9H-imidazo[1,5-a][1,2,4]triazolo[1,5-d][1,4]benzodiazepine]
- Ki [1]: 4.7 nM
- Ki [3]: 12.8 nM
- Ki [4]: 6.3 nM
- Ki [2, 6]: 1 nM

From patent publication US7432256B2, “Substitued imidazo [1,5-A][1,2,4]triazolo[1,5-D][1,4]benzodiazepine derivatives” (Hoffman-La Roche Inc., priority 2004, dated 2008)
